# Assays:
# Format in all cases: in vivo
# [1] = test system: Echinochloa crusgalli var. zelayensis; assay: Soil sealing treatment, pot culture, fresh weight inhibition (Tables 49, 50)
# Method: (§1) A method for investigating absolute number was employed, wherein whole seedlings of survival weeds were cut off with a blade along the soil surface, and the fresh weight of the weeds was weighed with an analytical balance. For dead weeds, the fresh weight thereof was zero.
# (§2) Theoretical fresh weight inhibition rate of a combination of two active ingredients in each group was calculated by the Gowing method (E0=X+Y−X*Y/100), and then compared with an actually measured inhibition rate (E), thereby effect of the combination (hereafter referred to as combined effect) on weeds was evaluated: the value of E-E0, which was greater than 10%, corresponded to a synergistic effect, the value of E-E0, which was less than −10%, corresponded to an antagonistic effect, and the value of E-E0, which was from −10% to 10%, corresponded to an additional effect. […] Wherein, in the formula, X represented the fresh weight inhibition rate of the active ingredient A in a dosage of P, and Y represented the fresh weight inhibition rate of the active ingredient B in a dosage of Q.
# (§3) Echinochloa crusgalli var zelayensis were collected in Huai'an of Jiangsu Province; Echinochloa caudate were collected in Pingluo of Ningxia Province; Echinochloa oryzoides were collected in Qiqiha'er of Heilongjiang Province.
# (§4) The culture was carried out in a controllable sunlight greenhouse at 20 to 30° C., in natural light, and relative humidity of 57% to 72%. […] The test soil was placed quantitatively to ¾ of the pots and then watered from the bottom of the pots to completely wet the soil to saturation. The pretreated test weed seeds were uniformly sowed on the surface, then covered with 0.5-2 cm soil according to the seed size, and ready-for use 24 hours after sowing.
# (§5) The technical materials were all dissolved in acetone, and diluted with an aqueous solution containing 0.1% emulsifier T-80. The dilution is performed as required.
# (§6) A ratio of A to the active ingredient B and amounts thereof in each group depends on the characteristics and toxicity of the two agents, as well as the main application purpose of a corresponding formulation. Based on the pre-tests in this study, the dosage of A and the active ingredient B applied alone and in combination were shown in the tables. Water containing the solvent and emulsifier same with the above groups but free of the agents was used as a blank control.
# (§7) 3 pots with 30 weed seeds per pot were treated in one treatment with 4 replications per treatment.
# (§8) The pots which were sowed and mulched were evenly placed on a platform with an area of 0.5 m^2, and a solution of agents was sprayed on soil surface thereof by the 3WP-2000-type walking spray tower at a dosage of […] and at a spray pressure of 0.3 MPa. After all the solution was sprayed, the valve was closed. After 30 seconds, the door of the spray tower was opened, and the nutritional bowl was taken out. Then the valve was opened, and the spray tube was cleaned by spraying 50 ml of water.
# (§9) This section was same as the section 4) in the post-emergence treatment by performing foliage spray, and was not repeated herein.
# [2] = test system: Echinochloa caudate; assay: Soil sealing treatment, pot culture, fresh weight inhibition (Tables 99, 100)
# Method: as §1, §2, §3, §4, §5, §6, §7, §8, §9
# [3] = test system: Echinochloa oryzoides; assay: Soil sealing treatment, pot culture, fresh weight inhibition (Tables 149, 150)
# Method: as §1, §2, §3, §4, §5, §6, §7, §8, §9
# [4] = test system: Ammannia arenaria; assay: Post-emergence foliage spray, pot culture, fresh weight inhibition (Tables 1-48, 51-98, 101-148; 24 days); conditions: Table 103
# Summary of the method: (§10)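 Greenhouse pot-grown weeds (15 per pot, 3 pots, 4 replicates) at the 5–6-leaf (grasses) or 6–7-leaf (broadleaf) stage were sprayed once on foliage at 450 kg/ha spray volume, 0.3 MPa. Acetone solutions were diluted in 0.1% Tween-80. Aboveground fresh weight versus blank control was recorded after 24 days.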
# [5] = test system: Eclipta prostrate; assay: as above; conditions: 24 days
# Summary of the method: as §10
# [6] = test system: Ludwigia prostrate; assay: as above
# Summary of the method: as §10
smiles,measurement,setting,value
C#CCOc1cc(-n2nc(C(C)(C)C)oc2=O)c(Cl)cc1Cl [oxadiargyl],Control effect (%) of B applied alone in corresponding dose,[1]; oxadiargyl 7.5 g a.i./ha,1.6%
same,Control effect (%) of B applied alone in corresponding dose,[1]; oxadiargyl 15 g a.i./ha,10.4%
same,Control effect (%) of B applied alone in corresponding dose,[1]; oxadiargyl 30 g a.i./ha,38.8%
same,Control effect (%) of B applied alone in corresponding dose,[1]; oxadiargyl 60 g a.i./ha,63.5%
same,Control effect (%) of B applied alone in corresponding dose,"[2]; Table 100, 7.5 g a.i./ha",1.7%
same,Control effect (%) of B applied alone in corresponding dose,"[2]; Table 100, 15 g a.i./ha",10.8%
same,Control effect (%) of B applied alone in corresponding dose,"[2]; Table 100, 30 g a.i./ha",37.2%
same,Control effect (%) of B applied alone in corresponding dose,"[2]; Table 100, 60 g a.i./ha",62.5%
same,Control effect (%) of B applied alone in corresponding dose,[3]; B 7.5 g a.i./ha,2.6%
same,Control effect (%) of B applied alone in corresponding dose,[3]; B 15 g a.i./ha,12.7%
same,Control effect (%) of B applied alone in corresponding dose,[3]; B 30 g a.i./ha,41.6%
same,Control effect (%) of B applied alone in corresponding dose,[3]; B 60 g a.i./ha,63.3%
CC(C)Oc1cc(-n2nc(C(C)(C)C)oc2=O)c(Cl)cc1Cl [oxadiazon],Control effect (%) of B applied alone in corresponding dose,[1]; oxadiazon 37.5 g a.i./ha,4.2%
same,Control effect (%) of B applied alone in corresponding dose,[1]; oxadiazon 75 g a.i./ha,25.4%
same,Control effect (%) of B applied alone in corresponding dose,[1]; oxadiazon 150 g a.i./ha,41.5%
same,Control effect (%) of B applied alone in corresponding dose,[1]; oxadiazon 300 g a.i./ha,64.2%
same,Control effect (%) of B applied alone in corresponding dose,"[2]; Table 99, 37.5 g a.i./ha",6.0%
same,Control effect (%) of B applied alone in corresponding dose,"[2]; Table 99, 75 g a.i./ha",22.1%
same,Control effect (%) of B applied alone in corresponding dose,"[2]; Table 99, 150 g a.i./ha",39.5%
same,Control effect (%) of B applied alone in corresponding dose,"[2]; Table 99, 300 g a.i./ha",63.0%
same,Control effect (%) of B applied alone in corresponding dose,[3]; B 37.5 g a.i./ha,5.1%
same,Control effect (%) of B applied alone in corresponding dose,[3]; B 75 g a.i./ha,10.3%
same,Control effect (%) of B applied alone in corresponding dose,[3]; B 150 g a.i./ha,39.7%
same,Control effect (%) of B applied alone in corresponding dose,[3]; B 300 g a.i./ha,50.8%
CCOC(=O)c1cnn(C)c1S(=O)(=O)NC(=O)Nc1nc(OC)cc(OC)n1 [pyrazosulfuron-ethyl],Control effect (%) of B applied alone in corresponding dose,[4]; 1.875 g a.i./ha,16.3%
same,Control effect (%) of B applied alone in corresponding dose,[4]; 3.75 g a.i./ha,26.1%
same,Control effect (%) of B applied alone in corresponding dose,[4]; 7.5 g a.i./ha,52.8%
same,Control effect (%) of B applied alone in corresponding dose,[4]; 15 g a.i./ha,77.2%
same,Control effect (%) of B applied alone in corresponding dose,[5]; B 1.875 g a.i/ha,9.5%
same,Control effect (%) of B applied alone in corresponding dose,[5]; B 3.75 g a.i/ha,19.9%
same,Control effect (%) of B applied alone in corresponding dose,[5]; B 7.5 g a.i/ha,51.0%
same,Control effect (%) of B applied alone in corresponding dose,[5]; B 15 g a.i/ha,76.1%
same,Control effect (%) of B applied alone in corresponding dose,[6]; pyrazosulfuron-ethyl 1.875 g a.i./ha,7.6%
same,Control effect (%) of B applied alone in corresponding dose,[6]; pyrazosulfuron-ethyl 3.75 g a.i./ha,13.0%
same,Control effect (%) of B applied alone in corresponding dose,[6]; pyrazosulfuron-ethyl 7.5 g a.i./ha,52.2%
same,Control effect (%) of B applied alone in corresponding dose,[6]; pyrazosulfuron-ethyl 15 g a.i./ha,75.3%
